In PubChem BioAssay (NCI) one finds TGI and GI50 data, which are given here for 11 compounds.

Assay in all cases: NCI anticancer screen, dose series, 48 h
The test system of experiment [1] is KM20L2 colon.
Experiment [2] relates to LOX IMVI melanoma.
Experiment [3] deals with OVCAR-5 ovarian.
Experiment [4] concerns RXF 393 renal.
The subject of experiment [5] is SK-MEL-2 melanoma.
For experiment [6], the system named is SNB-75 CNS.
Experiment [7] concerns UACC-257 melanoma.
For experiment [8], the system named is UACC-62 melanoma.
The test system of experiment [9] is MDA-MB-231 breast.

Values joined by “and” are separate entries in the source; they are usually repeats but may differ in a detail not shown here. Equal entries are not always repeated.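 Step 1: Grow cells in 96-well plates. Step 2: Expose to compound for 48 hours at 5 concentrations. Step 3: Interpolate endpoints linearly; if unreached, use highest concentration. Here, GI50 denotes the concentration required for 50% inhibition of growth. TGI is the concentration that stops growth completely.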 Some results are limits rather than exact numbers.

In the case of `CCOC(=O)N1N=NC2C3OC(C[C@@]3(C#N)OC(C)=O)[C@H]21` (some centres undefined), the TGI in experiment [1], in [2], in experiment [3], in [4], in experiment [5] and in [6] was above 100 µM throughout. For the same compound, the TGI in experiment [7] and in experiment [8] was above 100 µM throughout.
In the case of `O=C(O)c1ccc(NCc2nc3cc4ccccc4cc3[nH]2)cc1`, the TGI in [2] was above 100 µM; in experiment [9], above 100 µM; in experiment [3] it was above 100 µM; in experiment [4], above 100 µM; in [5], above 86.3 µM; in experiment [6] it was above 100 µM. The TGI was 25.9 µM in experiment [7] and above 100 µM in experiment [8].
As to `O=C1c2ccccc2-c2n[nH]c3cccc1c23`, the GI50 was 6.04 µM in experiment [2]; 35.8 µM in [9]; 5.89 µM in [4]; 22.5 µM in experiment [5]; 19.7 µM in experiment [8]. For the same compound, the TGI is > 100 µM and 34.2 µM in experiment [2]; above 100 µM in [9]; 85.4 µM and > 100 µM in experiment [3]; > 100 µM and 56.9 µM in experiment [4]; above 100 µM in [5]; 97.6 µM and > 100 µM in experiment [6]. In addition, the TGI is above 100 µM in [7]; 86.6 µM and > 100 µM in [8].
As for `CO/N=C(/COc1c(-c2ccccc2)oc2ccccc2c1=O)c1ccc(OC)cc1`, the GI50 in experiment [2] was above 100 µM; in [9], 31.3 µM; in [3], above 100 µM; in experiment [4] it was above 100 µM; in experiment [5], above 100 µM; in experiment [6] it was 58.7 µM. For the same compound, the GI50 in experiment [7] is above 100 µM; in experiment [8], 53.5 µM. In addition, the TGI in experiment [2], in experiment [9], in [3], in [4], in [5] and in [6] was above 100 µM each time. Moreover, the TGI in experiment [7] and in [8] was above 100 µM in each case.
In the case of `C/C1=C\C/C=C(\C)[C@H]2CC(CC/C(C)=C/CC1)[C@@](C)(CO)O2`, the GI50 in [2] is 23.3 µM; in experiment [9], 54.9 µM; in [3], above 100 µM; in experiment [4], above 100 µM; in [5] it was 44.9 µM; in experiment [6], above 100 µM. Further, the GI50 is above 100 µM in experiment [7] and 69.2 µM in [8]. Besides, the TGI was 54 µM in experiment [2]; above 100 µM in [9]; above 100 µM in [3]; above 100 µM in experiment [4]; above 100 µM in experiment [5]; above 100 µM in experiment [6]. The TGI in [7] and in experiment [8] was above 100 µM throughout.
With `N#CSCc1c(Cl)cccc1Cl`, the GI50 in experiment [2] was 3.55 µM; in [9] it was 3.43 µM; in experiment [3] it was 7.41 µM; in experiment [4], 2.54 µM; in experiment [5], 4.02 µM; in [6], 20.2 µM. The GI50 in [7] was 10.9 µM; in [8] it was 5.18 µM. Also, the TGI in experiment [2] was above 100 µM; in experiment [9], above 63.5 µM; in experiment [3] it was above 100 µM; in [4], 7.24 µM; in experiment [5] it was above 100 µM; in experiment [6], above 100 µM. Besides, the TGI was above 81.3 µM in [7] and above 67.4 µM in [8].
With `CCCCCCCCCCCC[n+]1ccccc1`, the GI50 was 1.17 µM in experiment [2]; 1.34 µM in experiment [9]; 1.57 µM in experiment [3]; 0.738 µM in [4]; 1.44 µM in [5]; 1.16 µM in experiment [6]. For the same compound, the figures for the GI50 in [7] and in experiment [8] were 1.23 µM and 1.17 µM, respectively. For the same compound, the TGI in experiment [2] was determined as 2.72 µM; in [9], 3.4 µM; in experiment [3], 7.67 µM; in [4], 3.87 µM; in experiment [5], 3.73 µM; in experiment [6] it was 4.05 µM. In addition, the values for the TGI in experiment [7] and in [8] were 3.97 µM and 2.81 µM, respectively.
As to `CN1CCN(Cc2ccc(NC(=O)c3nc4ccc5[nH]ncc5c4c4c3CCC4)cc2C(F)(F)F)CC1`, the GI50 in [2] is 0.832 µM; in [9] it was 0.924 µM; in experiment [3] it was 0.994 µM; in experiment [4] it was 1.19 µM; in [5], 1.16 µM; in experiment [6] it was 4.81 µM. Also, the GI50 in experiment [7] was 0.99 µM; in [8] it was 1.88 µM. Besides, the TGI in experiment [2] stood at 1.54 µM; in experiment [9], 1.68 µM; in [3] it was 2.41 µM; in [4], 4.37 µM; in [5] it was 2.49 µM; in experiment [6], 10.8 µM. Further, the TGI in experiment [7] was 2.01 µM; in experiment [8] it was 6.94 µM.
For the compound `O=C(O)CCCSc1nc2ccccc2s1`, the TGI in experiment [2], in [9], in experiment [3], in [4], in experiment [5] and in experiment [6] was above 100 µM in each case. The TGI in experiment [7] and in experiment [8] was above 100 µM throughout.
For the compound `O=C(NNc1ccccc1)OCc1ccccc1`, the GI50 is 15.2 µM in experiment [2]; 11.3 µM in experiment [9]; 8.05 µM in experiment [3]; 91.6 µM in experiment [4]; 15.7 µM in [5]; above 100 µM in experiment [6]. Further, the values for the GI50 in [7] and in experiment [8] were 18.5 µM and 0.462 µM, respectively. The TGI in experiment [2], in experiment [9], in experiment [3], in [4], in experiment [5] and in experiment [6] was above 100 µM in each case. Further, the TGI in experiment [7] is above 100 µM; in experiment [8], 8.43 µM.
As to `COc1cc(Cn2ccc3c2-c2oncc2CC3)cc(OC)c1`, the GI50 is 4.83 µM in [2]; 6.58 µM in experiment [9]; 10.1 µM in experiment [3]; 5.2 µM in [4]; 8.29 µM in [5]; 1.9 µM in experiment [6]. Besides, the GI50 was 6.72 µM in experiment [7] and 3.68 µM in experiment [8]. Moreover, the TGI in experiment [2] was above 100 µM; in experiment [9], 81.4 µM; in experiment [3], above 100 µM; in [4], 60 µM; in experiment [5] it was above 100 µM; in [6] it was 7.48 µM. Moreover, the TGI is 91.1 µM in [7] and above 100 µM in experiment [8].
